Reference: patent US20080114168A1, “Novel esters as useful broad spectrum herbicidal compounds” (priority 2004, published 2008)

Assays:
broad leaved weeds = experiment: herbicidal activity against broad leaved weeds, applied in aqueous solution; format: in vivo; conditions: applied in an aqueous solution at 500-2000 ppm
grasses = experiment: herbicidal activity against grasses, applied in aqueous solution; format: in vivo; conditions: applied in an aqueous solution at 500-2000 ppm
[1] = general herbicidal character (selective or non-selective); conditions: in vivo
[2] = tested on: glufosinate-resistant corn; experiment: crop selectivity; format: in vivo; conditions: aqueous solution at 500-2000 ppm

| SMILES | herbicidal activity against broad leaved weeds (broad leaved weeds) | herbicidal activity against grasses (grasses) | herbicide selectivity (general) [1] | selectivity to crop [2] |
| --- | --- | --- | --- | --- |
| CP(=O)(O)CCC(N)C(=O)Oc1c(Cl)cnc(Cl)c1Cl (racemic) [Example 2] | active | active | powerful non-selective herbicide | – |
| CP(=O)(O)CCC(N)C(=O)Oc1cc(Cl)nnc1-c1ccccc1 (racemic) [Example 1, 6-chloro-3-phenylpyridazin-4-yl 4-[hydroxyl(methyl)phosphinoyl]-DL-alaninate] | active | active | – | selective |
